Marks after values point to notes of the source that are not given here. Starred links: 1 amine or outer side, 2 acyl side, 3 side chain; linkers in the order of their positions; H or OH if unused. Non-standard residues stand in square brackets, D forms with d. Residues, ends and D or L forms follow the SMILES beside them. Groups on a side chain read outwards from the residue. No end group written: not given here. *: point of attachment. C20 diacid = O=C(O)CCCCCCCCCCCCCCCCCCC(=O)*; γGlu = O=C(O)[C@H](CCC(=O)[*:2])N[*:1]; Moiety A = not defined here; Nva = CCC[C@H](N)C(=O)O; AEEA = NCCOCCOCC(=O)O; Aib = CC(C)(N)C(=O)O
Tested on: type 2 diabetic mouse (db/db) model
Assay: Efficacy study in db/db mice at 10 nM/kg dose (blood glucose, body weight, food intake)
Assay type: in vivo
Settings: for Cumulative food Intake (g) 0-48 hr. vs. Baseline, Mean / Cumulative food Intake (g) 0-96 hr. vs. Baseline, Mean / Delta Blood Glucose (mM) Mean / Body Wt. Change (%) 48 hr. vs. Baseline, Mean / Body Wt. Change (%) 96 hr. vs. Baseline, Mean: 10 nM/kg s.c. single dose; for blood glucose reduction / body weight reduction / reduction in food consumption: db/db mice, 10 nM/kg s.c., vs diabetic control
Protocol: The effect of compounds of present invention on blood glucose, food intake and body weight was studied in mice. This study was performed in a type 2 diabetic mouse (db/db) model. […] Baseline blood glucose was measured from all the animals. […] All the animals were administered with test items subcutaneously. […] Delta blood glucose (mM) was calculated.

[1] = Study 2, db/db mice, 0 hr (baseline)
[2] = Study 4, db/db mice, 0 hr (baseline)

| Compound | Cumulative food Intake (g) 0-48 hr. vs. Baseline, Mean (Study 2, db/db mice) | Cumulative food Intake (g) 0-96 hr. vs. Baseline, Mean (Study 2, db/db mice) | Delta Blood Glucose (mM) Mean [1] [mM] | Delta Blood Glucose (mM) Mean (Study 2, db/db mice, 4 hr) | Delta Blood Glucose (mM) Mean (Study 2, db/db mice, 8 hr) | Delta Blood Glucose (mM) Mean (Study 2, db/db mice, 12 hr) | Delta Blood Glucose (mM) Mean (Study 2, db/db mice, 24 hr) | Body Wt. Change (%) 48 hr. vs. Baseline, Mean (Study 2, db/db mice, 48 hr) | Delta Blood Glucose (mM) Mean (Study 2, db/db mice, 48 hr) | Delta Blood Glucose (mM) Mean (Study 2, db/db mice, 72 hr) | Body Wt. Change (%) 96 hr. vs. Baseline, Mean (Study 2, db/db mice, 96 hr) | Delta Blood Glucose (mM) Mean (Study 2, db/db mice, 96 hr) [mM] | blood glucose reduction | body weight reduction | reduction in food consumption | Cumulative food Intake (g) 0-48 hr. vs. Baseline, Mean (Study 4, db/db mice) | Cumulative food Intake (g) 0-96 hr. vs. Baseline, Mean (Study 4, db/db mice) | Delta Blood Glucose (mM) Mean [2] [mM] | Delta Blood Glucose (mM) Mean (Study 4, db/db mice, 4 hr) | Delta Blood Glucose (mM) Mean (Study 4, db/db mice, 8 hr) | further results |
| --- | --- | --- | --- | --- | --- | --- | --- | --- | --- | --- | --- | --- | --- | --- | --- | --- | --- | --- | --- | --- | --- |
| CC[C@H](C)[C@H](NC(=O)[C@H](CCCCN)NC(=O)[C@H](CC(=O)O)NC(=O)[C@H](CC(C)C)NC(=O)[C@H](CC(C)C)NC(=O)[C@@H](NC(=O)[C@H](CO)NC(=O)[C@H](Cc1ccc(O)cc1)NC(=O)[C@H](CC(=O)O)NC(=O)[C@H](CO)NC(=O)[C@@H](NC(=O)[C@H](Cc1ccccc1)NC(=O)[C@@H](NC(=O)CNC(=O)[C@H](CCC(=O)O)NC(=O)C(C)(C)NC(=O)[C@@H](N)Cc1ccc(O)cc1)[C@@H](C)O)[C@@H](C)O)[C@@H](C)CC)C(=O)N[C@@H](C)C(=O)N[C@@H](CCC(N)=O)C(=O)N[C@@H](CCCCNC(=O)COCCOCCNC(=O)C(C)(C)NC(=O)CC[C@H](NC(=O)CCCCCCCCCCCCCCCCCCC(=O)O)C(=O)O)C(=O)N[C@@H](C)C(=O)N[C@@H](Cc1ccccc1)C(=O)N[C@H](C(=O)N[C@@H](CCC(N)=O)C(=O)N[C@@H](Cc1c[nH]c2ccccc12)C(=O)N[C@@H](CC(C)C)C(=O)N[C@H](C(=O)N[C@@H](C)C(=O)NCC(=O)NCC(=O)N1CCC[C@H]1C(=O)N[C@@H](CO)C(=O)N[C@@H](CO)C(=O)NCC(=O)N[C@@H](C)C(=O)N1CCC[C@H]1C(=O)N1CCC[C@H]1C(=O)N1CCC[C@H]1C(=O)N[C@@H](CO)C(N)=O)[C@@H](C)CC)C(C)C [Compound 3] (H-Y[Aib]EGTFTSDYSILLDKIAQK([AEEA-Aib-γGlu-C20 diacid])AFVQWLIAGGPSSGAPPPS-NH2) | 6.0*** g | 16.0*** g | 0 | −10.3*** mM | −13.9*** mM | −15.8*** mM | −10.9*** mM | −5.6*** % | −6.6*** mM | 0.1 mM | −4.9*** % | -0.7 | statistically significant blood glucose reduction upto 96 hr post treatment | statistically significant reduction in food intake and body weight | statistically significant reduction in food intake |  |  |  |  |  |  |
| CCC[C@H](NC(=O)[C@@H](NC(=O)[C@H](CO)NC(=O)[C@H](Cc1ccc(O)cc1)NC(=O)[C@H](CC(=O)O)NC(=O)[C@H](CO)NC(=O)[C@@H](NC(=O)[C@H](Cc1ccccc1)NC(=O)[C@@H](NC(=O)CNC(=O)[C@H](CCC(=O)O)NC(=O)C(C)(C)NC(=O)[C@@H](N)Cc1ccc(O)cc1)[C@@H](C)O)[C@@H](C)O)[C@@H](C)CC)C(=O)N[C@@H](CC(C)C)C(=O)N[C@@H](CC(=O)O)C(=O)N[C@@H](CCCCN)C(=O)N[C@H](C(=O)N[C@@H](C)C(=O)N[C@@H](CCC(N)=O)C(=O)N[C@@H](CCCCNC(=O)COCCOCCNC(=O)COCCOCCNC(=O)CC[C@H](NC(=O)CCCCCCCCCCCCCCCCCCC(=O)O)C(=O)O)C(=O)N[C@@H](C)C(=O)N[C@@H](Cc1ccccc1)C(=O)N[C@H](C(=O)N[C@@H](CCC(N)=O)C(=O)N[C@@H](Cc1c[nH]c2ccccc12)C(=O)N[C@@H](CC(C)C)C(=O)N[C@H](C(=O)N[C@@H](C)C(=O)NCC(=O)NCC(=O)N1CCC[C@H]1C(=O)N[C@@H](CO)C(=O)N[C@@H](CO)C(=O)NCC(=O)N[C@@H](C)C(=O)N1CCC[C@H]1C(=O)N1CCC[C@H]1C(=O)N1CCC[C@H]1C(=O)N[C@@H](CO)C(N)=O)[C@@H](C)CC)C(C)C)[C@@H](C)CC [Compound 6] | 4.2*** g | 16.0*** g | 0 | −15.6*** mM | −15.9*** mM | −16.3*** mM | −11.8*** mM | −5.5*** % | −9.5*** mM | −2.6* mM | −2.2** % | -1.6 | statistically significant blood glucose reduction upto 96 hr post treatment | statistically significant reduction in food intake and body weight | statistically significant reduction in food intake |  |  |  |  |  |  |
| CC[C@H](NC(=O)[C@@H](NC(=O)[C@H](CO)NC(=O)[C@H](Cc1ccc(O)cc1)NC(=O)[C@H](CC(=O)O)NC(=O)[C@H](CO)NC(=O)[C@@H](NC(=O)[C@H](Cc1ccccc1)NC(=O)[C@@H](NC(=O)CNC(=O)[C@H](CCC(=O)O)NC(=O)C(C)(C)NC(=O)[C@@H](N)Cc1ccc(O)cc1)[C@@H](C)O)[C@@H](C)O)[C@@H](C)CC)C(=O)N[C@@H](CC(C)C)C(=O)N[C@@H](CC(=O)O)C(=O)N[C@@H](CCCCN)C(=O)N[C@H](C(=O)N[C@@H](C)C(=O)N[C@@H](CCC(N)=O)C(=O)N[C@@H](CCCCNC(=O)COCCOCCNC(=O)C(C)(C)NC(=O)CC[C@H](NC(=O)CCCCCCCCCCCCCCCCCCC(=O)O)C(=O)O)C(=O)N[C@@H](C)C(=O)N[C@@H](Cc1ccccc1)C(=O)N[C@H](C(=O)N[C@@H](CCC(N)=O)C(=O)N[C@@H](Cc1c[nH]c2ccccc12)C(=O)N[C@@H](CC(C)C)C(=O)N[C@H](C(=O)N[C@@H](C)C(=O)NCC(=O)NCC(=O)N1CCC[C@H]1C(=O)N[C@@H](CO)C(=O)N[C@@H](CO)C(=O)NCC(=O)N[C@@H](C)C(=O)N1CCC[C@H]1C(=O)N1CCC[C@H]1C(=O)N1CCC[C@H]1C(=O)N[C@@H](CO)C(N)=O)[C@@H](C)CC)C(C)C)[C@@H](C)CC [Compound 10] |  |  |  |  |  |  |  |  |  |  |  |  |  |  |  | 8.2*** g | 20.5** g | 0 | −12.1*** mM | −13.6*** mM | Delta Blood Glucose (mM) Mean (Study 4, db/db mice, 12 hr): −14.7*** mM; Delta Blood Glucose (mM) Mean (Study 4, db/db mice, 24 hr): −15.6*** mM; Body Wt. Change (%) 48 hr. vs. Baseline, Mean (Study 4, db/db mice, 48 hr): −4.5*** %; Delta Blood Glucose (mM) Mean (Study 4, db/db mice, 48 hr): −4.0** mM; Delta Blood Glucose (mM) Mean (Study 4, db/db mice, 72 hr): 2.3 mM; Body Wt. Change (%) 96 hr. vs. Baseline, Mean (Study 4, db/db mice, 96 hr): −3.1*** %; Delta Blood Glucose (mM) Mean (Study 4, db/db mice, 96 hr): 1.7 mM |
| CCCC[C@H](NC(=O)[C@@H](NC(=O)[C@H](CO)NC(=O)[C@H](Cc1ccc(O)cc1)NC(=O)[C@H](CC(=O)O)NC(=O)[C@H](CO)NC(=O)[C@@H](NC(=O)[C@H](Cc1ccccc1)NC(=O)[C@@H](NC(=O)CNC(=O)[C@H](CCC(=O)O)NC(=O)C(C)(C)NC(=O)[C@@H](N)Cc1ccc(O)cc1)[C@@H](C)O)[C@@H](C)O)[C@@H](C)CC)C(=O)N[C@@H](CC(C)C)C(=O)N[C@@H](CC(=O)O)C(=O)N[C@@H](CCCCN)C(=O)N[C@H](C(=O)N[C@@H](C)C(=O)N[C@@H](CCC(N)=O)C(=O)N[C@@H](CCCCNC(=O)COCCOCCNC(=O)C(C)(C)NC(=O)CC[C@H](NC(=O)CCCCCCCCCCCCCCCCCCC(=O)O)C(=O)O)C(=O)N[C@@H](C)C(=O)N[C@@H](Cc1ccccc1)C(=O)N[C@H](C(=O)N[C@@H](CCC(N)=O)C(=O)N[C@@H](Cc1c[nH]c2ccccc12)C(=O)N[C@@H](CC(C)C)C(=O)N[C@H](C(=O)N[C@@H](C)C(=O)NCC(=O)NCC(=O)N1CCC[C@H]1C(=O)N[C@@H](CO)C(=O)N[C@@H](CO)C(=O)NCC(=O)N[C@@H](C)C(=O)N1CCC[C@H]1C(=O)N1CCC[C@H]1C(=O)N1CCC[C@H]1C(=O)N[C@@H](CO)C(N)=O)[C@@H](C)CC)C(C)C)[C@@H](C)CC [Compound 11] |  |  |  |  |  |  |  |  |  |  |  |  |  |  |  | 8.2*** g | 21.7* g | 0 | −13.3*** mM | −13.3*** mM | Delta Blood Glucose (mM) Mean (Study 4, db/db mice, 12 hr): −13.6*** mM; Delta Blood Glucose (mM) Mean (Study 4, db/db mice, 24 hr): −15.4*** mM; Body Wt. Change (%) 48 hr. vs. Baseline, Mean (Study 4, db/db mice, 48 hr): −4.7*** %; Delta Blood Glucose (mM) Mean (Study 4, db/db mice, 48 hr): −6.1*** mM; Delta Blood Glucose (mM) Mean (Study 4, db/db mice, 72 hr): 3.6 mM; Body Wt. Change (%) 96 hr. vs. Baseline, Mean (Study 4, db/db mice, 96 hr): −2.0*** %; Delta Blood Glucose (mM) Mean (Study 4, db/db mice, 96 hr): 6 mM |
| Compound 4: SEQ ID 07 polypeptide, Lys20 acylated with Moiety A (Y[Nva]EGTFTSDYSI[Nva]LDKIAQK(Moiety A)AFVQWLIAGGPSSGAPPPS-NH2; not fully specified; reading uncertain) | 4.6*** g | 14.4*** g | 0 | −10.4*** mM | −13.3*** mM | −13.8*** mM | −4.9* mM | −3.8*** % | −3.7* mM | 0.2 mM | −1.9** % | -1.9 | statistically significant blood glucose reduction upto 96 hr post treatment | statistically significant reduction in food intake and body weight | statistically significant reduction in food intake |  |  |  |  |  |  |
